Molecules are shown by their SMILES.

The subject of the assay is Arabidopsis thaliana Ler x transgenic WS (AtLTP1::AtSERK1) F1 plants. Nature of the assay: SSLP analysis of F2 progeny for apomictic plants after 2,4-D application to F1 flower buds. The conditions noted are these: flower buds dipped in 2 μM 2,4-D 1 to 2 days pre-anthesis, repeated twice. It counts as in vivo. Here is the method: Transgenic T3 Arabidopsis thaliana ecotype WS plants, i.e. transgenic plants in the third generation after transformation, that are homozygous for the AtLTP1::AtSERK1 construct are used as male donor to pollinate Arabidopsis thaliana ecotype Landsberg erecta (L r) plants. The flower buds of the F1 plants at stage 11 to 12 (Smyth et al., The Plant Cell 2: 755, 1990) approximately 1 to 2 days pre-anthesis are dipped in an aqueous solution containing 2 μM 2,4-D supplemented with 0.04% (v/v) Triton X-100 as a surfactant as described by Vivian-Smith et al., (Plant Physiol. 121: 437, 1999). The treatment is repeated twice in a two-day period and plants are left to set F2 seeds. In parallel a control cross between wild-type Ler female and wild-type WS male plant is made to obtain F1 plants. Those F1 plants are designated as wild-type F1 plants and they are analysed in the same way as the transgenic F1 plants except that they are not auxin treated.
The F2 seeds are grown into seedlings and a few rosette leaves from each plant are used for DNA extraction as described by Ponce et al., Mol. Gen. Genet. 261: 408, 1999. Simple Sequence Length Polymorphism (SSLP) analysis is carried out by simultaneous amplification of 11 SSLP markers (see Table 1) using multiplex PCR with fluorescently labeled primers as described by Ponce et al. supra. […]

Consider `O=C(O)COc1ccc(Cl)cc1Cl` [2, 4 D, 2,4-dichlorophenoxyacetic acid], for which the “Plants h t rozygous for 11 SSLP markers Observed” value by setting is: (AtLTP::AtSERK1 cross No 14 (line with lower SERK1 level), 144 F2 plants analyzed) 0; (AtLTP::AtSERK1 cross No 15, 175 F2 plants analyzed) 2.

Values taken from patent publication US20040103452A1, “Inducible apomixis” (priority 2001, published 2004).
